Consider four compounds from patent publication US20230193199A1, “Methods for Printing Functional Human Neural Tissue” (Wisconsin Alumni Research Foundation, priority 2021, published 2023).

Assay [1] relates to hPSC-derived cortical neural progenitor cells (NPCs). As to the kind of experiment: Live/Dead assay of hPSC-NPCs cultured in fibrin gel. In kind it is cell-based, human. The method, then:
For cell culturing in the fibrin gel, dissociated hPSC-NPCs at a density of 1×10^6 were mixed with fibrinogen at the following concentrations (1, 2.5, 5, 10 and 20 mg/mL) as show in FIG. 5. 0.5 mg/mL aprotinin was added for preventing gel degradation. 1 μL of the fibrinogen-laden cells were dropped on the poly-O coated plates at RT (room temperature). 1 different concentrations of thrombin (0.5, 1, 2.5, 5 and 10 U) solution with 2.5 mM CaCl2 were then added and mixed with the cells-fibrinogen solution. Fresh medium was added after gelation. Cells were encapsulated in the fibrin gel constructs and cultured at 37° C. incubator for characterization. […] The cells, however, tended to aggregate at higher fibrinogen levels. Thus, 2.5 or 5 mg/mL fibrinogen with 0.5 or 1 U thrombin was used for identifying an optimal gelation time.
The cell viability was measured by Live/Dead assay. Briefly, Live/Dead® staining kit (Molecular Probes) was used to assess cell viability. Immediately after harvesting, the cells were incubated in DMEM/F12 containing 1 μM calcein AM and 2 μM ethidium homodimer I for 30 min. […] The number of live (green) and dead (red) cells were counted in each field using Cell Counter in Image-J. The live/dead cell numbers from the five images of one sample were averaged to give each data point and five samples were used to determine the viability.

For the next assay, the system named is glutamate receptor. As to the kind of experiment: whole-cell patch-clamp recording of sEPSCs. Particulars: holding potential −70 mV; CNQX 10 μM applied with D-APV 50. It is filed as cell-based, human. The method, then: Whole-cell patch-clamp recordings were made from human PSC-derived cortical glutamatergic and GABAergic neurons. The bath solution consisted of 135 mM NaCl, 3 mM KCl, 2 mM CaCl2, 1 mM MgCl2, 10 mM HEPES, 11 mM glucose, 10 mM sucrose, pH 7.4. Recording pipettes were filled with an intracellular solution containing 120 mM potassium D-gluconate, 1 mM ethylene glycol-bis (β-aminoethyl ether) N,N,N′,N′-tetraacetic acid (EGTA), 10 mM 4-(2-hydroxyethyl)piperazine-1-ethanesulfonic acid (HEPES), 4 mM ATP-Mg, 0.3 mM GTP-Na, 10 mM phosphocreatine, 0.1 mM CaCl2, 1 mM MgCl2, pH 7.2, 280-290 mOsm/L. Briefly, the neurons were held at −70 mV to record the Na+/K+ channel activities with voltage-clamp model. […] Spontaneous excitatory postsynaptic currents (sEPSCs) and spontaneous inhibitory currents (sIPSCs) were recorded in gap-free mode at a holding potential of −70 mV and 0 mV, respectively. sEPSCs were blocked by application of the glutamate receptor antagonist 6-Cyano-7-nitroquinoxaline-2,3-dione (CNQX, 10 μM) and D-(−)-2-amino-5-phosphonopentanoic acid (D-APV, 50 sIPSCs were blocked by application of the GABAA receptor antagonist bicuculline (10 An Olympus BX51WI microscope was used to visualize neurons. A MultiClamp 700B amplifier (Axon instruments, Molecular Devices, Sunnyvale, Calif., USA) was used to investigate the voltage clamp and current clamp recordings. […]

On to fibrinogen, for which, in assay [1] (increasing fibrinogen concentrations at fixed low thrombin (0.5 U)), the “cell viability (percent of live cells to total cells)” value is reported as “not influenced”. Turning to `N[C@H](CCCP(=O)(O)O)C(=O)O` [D-APV, D-(−)-2-amino-5-phosphonopentanoic acid], the “spontaneous excitatory postsynaptic currents (sEPSCs)” value in the assay on glutamate receptor was “blocked”. Regarding `N#Cc1cc2c(cc1[N+](=O)[O-])=NC(=O)C(=O)N=2` [CNQX, 6-Cyano-7-nitroquinoxaline-2,3-dione], the “spontaneous excitatory postsynaptic currents (sEPSCs)” value with glutamate receptor is reported as “blocked”.

Regarding thrombin, in assay [1] (increasing thrombin concentrations at fixed fibrinogen 2.5 mg/ml), the “cell viability (percent of live cells to total cells)” value is listed as “decreased with increasing thrombin concentrations”.
